Measured values published in paper PMC5464911, “SEL120-34A is a novel CDK8 inhibitor active in AML cells with high levels of serine phosphorylation of STAT1 and STAT5 transactivation domains” (Oncotarget, 2017).
pIC50: −log10 of the molar value.

Legend:
SKM-1 = test: Extended viability test (AlamarBlue); format: cell-based; settings: Homo sapiens, extended viability assay
CDK19/CycC = CDK19/CycC (Homo sapiens, UniProt Q9BWU1); test: Radiometric protein kinase assay (PanQinase, ProQinase)
STAT1 S727 = test: IFN-dependent STAT1 S727 phosphorylation in HCT-116 cells (WB); format: cell-based; settings: IFNa or IFNg for 4 hours, increasing concentrations
Method: (B) SEL120-34A inhibits IFN-dependent phosphorylation of STAT1 S727. HCT-116 cells stimulated with IFNg for 4 h were treated with increasing doses of SEL120-34A, Flavopiridol (F) or vehicle DMSO (C) to determine changes in the phosphorylation of STAT1 S727 and Y701, as measured by WB. (*) unspecific band. (C) SEL120-34A inhibits serine phosphorylation of STAT1 S727 and STAT5 S726, whereas Ruxolitinib inhibits tyrosine phosphorylation of STAT1 Y701 and STAT5 Y694 in JAK2 V617F cells. SET-2 cells were treated with Ruxolitinib, SEL120-34A or vehicle DMSO (C) for 24 hours and protein levels of pS727, pY701 STAT1 and pS726, pY694 STAT5 were measured by WB. […]
0,1% SDS; 20 mM β-glicerol phosphate; 5 mM NaF; cat. # sc835), α-STAT5-pS726 (1:1000; Abcam, cat. # 1 mM Na3VO4) supplemented with protease inhibitors ab128896), α-STAT5-pY694 (1:1000; Cell Signaling, (Santa Cruz Biotechnology). […] Protein concentration in lysates (1:20000; Sigma, cat. # G9545) was measured by the Bradford assay and adjusted to achieve the same final concentration in each well (20-30 mRNA extraction from xenograft tissue μg protein/well). […] Prior to microarray analyses, the quality of the incubation with secondary donkey anti-rabbit antibodies RNA samples was determined using an Agilent 2100 conjugated to HRP, used at 1:4000 (Cell Signaling, Bioanalyzer (Agilent Technologies, CA, USA). […]

[1] = 14-days toxicology study, hematology; format: in vivo, CD-1 mice; settings: for GRA / HCT / HGB / LYMPH / MONO / MPV / PLT / RBC / WBC: 14 days
Method: To evaluate toxicity of the SEL120-34A compound, a 14-days toxicology study was run in CD-1 female mice. The day before the first administration of vehicle (BID, PO) or test compound, mice were weighed and randomized into uniform groups (5 mice per group). Prior to use, the test compound was dissolved freshly in water and administered PO at indicated doses in a volume of 10 μl per 1 g of body weight. Body weight and the general condition of the animals were monitored daily. When the study finished on Day 15, mice were subjected to anesthesia, and blood was collected into tubes containing K2EDTA for analysis of hematology parameters (ABC Vet Animal Blood Counter).

Sequence of CDK19/CycC (Q9BWU1 whole entry): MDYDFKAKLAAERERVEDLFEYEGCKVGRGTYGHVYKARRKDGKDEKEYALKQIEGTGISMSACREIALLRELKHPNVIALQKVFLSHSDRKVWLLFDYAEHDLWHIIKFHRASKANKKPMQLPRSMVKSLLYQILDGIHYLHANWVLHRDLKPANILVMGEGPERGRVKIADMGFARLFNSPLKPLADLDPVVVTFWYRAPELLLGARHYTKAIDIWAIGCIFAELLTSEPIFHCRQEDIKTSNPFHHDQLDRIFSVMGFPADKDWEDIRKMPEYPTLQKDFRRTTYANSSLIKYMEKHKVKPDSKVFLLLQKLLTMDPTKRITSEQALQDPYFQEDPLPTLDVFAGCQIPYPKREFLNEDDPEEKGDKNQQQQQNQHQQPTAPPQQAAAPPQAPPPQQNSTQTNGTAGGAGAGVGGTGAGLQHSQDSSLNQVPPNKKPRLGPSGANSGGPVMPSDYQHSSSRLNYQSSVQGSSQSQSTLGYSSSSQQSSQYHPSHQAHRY
Sequence of CDK19/CycC (P24863 whole entry partner): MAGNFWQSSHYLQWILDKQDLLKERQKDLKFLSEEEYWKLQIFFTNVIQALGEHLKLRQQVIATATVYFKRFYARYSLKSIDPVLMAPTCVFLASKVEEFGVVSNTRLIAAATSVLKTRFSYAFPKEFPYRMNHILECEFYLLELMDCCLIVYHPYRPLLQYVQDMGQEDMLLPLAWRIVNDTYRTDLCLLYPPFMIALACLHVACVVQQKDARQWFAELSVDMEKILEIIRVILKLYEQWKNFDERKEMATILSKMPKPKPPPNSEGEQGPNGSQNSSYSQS

Cc1c(Br)c(Br)c2c3c1nc(N1CCNCC1)n3CCC2 [SEL120-34A]
GI50 (SKM-1): 1900 nM | pIC50 (CDK19/CycC): 7.98 | STAT1 S727 phosphorylation (STAT1 S727): dose-depended inhibition | GRA ([1]; 30 mg/kg BID PO): 34% | HCT ([1]; 30 mg/kg BID PO): 47.7% | HGB ([1]; 30 mg/kg BID PO): 14.7 g/dL | LYMPH ([1]; 30 mg/kg BID PO): 60.2% | MONO ([1]; 30 mg/kg BID PO): 5.7% | MPV ([1]; 30 mg/kg BID PO): 6.6 μm3 | PLT ([1]; 30 mg/kg BID PO): 1305.4 103/mm3 | RBC ([1]; 30 mg/kg BID PO): 9.5 106/mm3 | WBC ([1]; 30 mg/kg BID PO): 12.8 103/mm3 | GRA ([1]; 30 mg/kg QD PO): 25.9% | HCT ([1]; 30 mg/kg QD PO): 46.2% | HGB ([1]; 30 mg/kg QD PO): 14.7 g/dL | LYMPH ([1]; 30 mg/kg QD PO): 68.6% | MONO ([1]; 30 mg/kg QD PO): 5.5% | MPV ([1]; 30 mg/kg QD PO): 6.1 μm3 | PLT ([1]; 30 mg/kg QD PO): 1169.4 103/mm3 | RBC ([1]; 30 mg/kg QD PO): 9 106/mm3 | WBC ([1]; 30 mg/kg QD PO): 10.1 103/mm3 | GRA ([1]; 60 mg/kg QD PO): 29.2% | HCT ([1]; 60 mg/kg QD PO): 46.4% | HGB ([1]; 60 mg/kg QD PO): 14.1 g/dL | LYMPH ([1]; 60 mg/kg QD PO): 65.1% | MONO ([1]; 60 mg/kg QD PO): 5.7% | MPV ([1]; 60 mg/kg QD PO): 6.6 μm3 | PLT ([1]; 60 mg/kg QD PO): 1050.6 103/mm3 | RBC ([1]; 60 mg/kg QD PO): 8.9 106/mm3 | WBC ([1]; 60 mg/kg QD PO): 10.4 103/mm3 | alterations in the peripheral blood ([1]; subchronic 14 days treatment, healthy immunocompetent CD-1 mice): not associated with significant alterations
